Patent publication US10294212B2 (CURADEV PHARMA PRIVATE LTD., priority 2013, dated 2019)

Tests used:
[1] = molecular target: Human indoleamine 2,3-dioxygenase1 (hIDO1) (Homo sapiens (Human), UniProt P14902); assay: In-vitro IDO1 enzyme assay (conversion of L-tryptophan to KYN); format: biochemical; conditions: read-out: IC50 (IDO1) Enz
Procedure, shortened: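 Kynurenine formation quantified by HPLC absorbance at 360 nm or LC/MS/MS after TCA quench and 15 min at 65 °C. Reaction: 10 nM N-His hIDO1, 30 μM tryptophan, ascorbate/methylene blue/catalase, pH 6.5 phosphate buffer, 37 °C for 30 min. Inhibition relative to 1% DMSO vehicle, fitted to IC50.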

[2] = molecular target: IDO1 in HeLa cells (Homo sapiens (Human), UniProt P14902); assay: HeLa cell based IDO1 assay (IFNγ-induced, KYN in supernatant)
Procedure, shortened: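 Kynurenine in the supernatant, quantified by C-18 HPLC with 360 nm absorbance after TCA hydrolysis (65 °C, 15 min), was the read-out. Compounds (typically 10 μM to 1 nM) were added in HBSS containing 80 μM tryptophan to HeLa cells pre-induced overnight with 50 ng/mL IFNγ. IC50 came from nonlinear fits of % inhibition versus 1% DMSO vehicle.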

[3] = molecular target: Human TDO (hTDO)-transfected CHO-K1 cells (Homo sapiens (Human), UniProt P48775); assay: CHO-K1 cell based TDO assay; conditions: hTDO cellular assay
Procedure, shortened: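 Kynurenine output was read by LC/MS/MS after TCA precipitation and 15 min at 65° C. Before that, CHO-K1 cells stably carrying human TDO2 were incubated 2 h with compounds (typically 31 μM to 10 nM) and 80 μM L-tryptophan in HBSS. Decrease versus DMSO vehicle gave percent inhibition, then IC50.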

Chain of Human indoleamine 2,3-dioxygenase1 (hIDO1) (P14902 whole entry): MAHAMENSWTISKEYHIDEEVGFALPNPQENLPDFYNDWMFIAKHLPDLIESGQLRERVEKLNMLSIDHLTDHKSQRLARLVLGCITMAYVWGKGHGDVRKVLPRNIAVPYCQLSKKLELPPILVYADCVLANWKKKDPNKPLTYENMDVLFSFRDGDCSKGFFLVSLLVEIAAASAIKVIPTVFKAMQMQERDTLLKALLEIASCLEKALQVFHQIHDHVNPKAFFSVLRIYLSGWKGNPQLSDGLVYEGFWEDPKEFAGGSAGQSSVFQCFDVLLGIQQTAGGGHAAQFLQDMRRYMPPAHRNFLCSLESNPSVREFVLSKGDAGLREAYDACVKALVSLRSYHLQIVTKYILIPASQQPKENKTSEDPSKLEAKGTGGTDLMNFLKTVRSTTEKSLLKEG
Chain of IDO1 in HeLa cells (P14902 whole entry): as above
Chain of Human TDO (hTDO)-transfected CHO-K1 cells (P48775 whole entry): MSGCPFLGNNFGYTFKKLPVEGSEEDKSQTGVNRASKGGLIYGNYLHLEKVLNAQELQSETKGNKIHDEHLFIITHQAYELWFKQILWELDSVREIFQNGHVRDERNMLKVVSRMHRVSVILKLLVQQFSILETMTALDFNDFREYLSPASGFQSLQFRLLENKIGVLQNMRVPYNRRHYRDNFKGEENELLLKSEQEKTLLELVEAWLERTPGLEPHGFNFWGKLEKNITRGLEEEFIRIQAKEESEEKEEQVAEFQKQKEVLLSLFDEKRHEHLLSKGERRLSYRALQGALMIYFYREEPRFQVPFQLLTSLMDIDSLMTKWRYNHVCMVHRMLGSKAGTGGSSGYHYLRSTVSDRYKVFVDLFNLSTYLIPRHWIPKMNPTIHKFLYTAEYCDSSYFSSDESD

IC50 [1] [nM] | IC50 [2] [nM] | IC50 [3] [nM] | Structure (SMILES)
< 200 | < 200 | 500 to 2000 | C#Cc1cc(Nc2c(N)oc3c(-c4ccccc4)nccc23)ccc1F [Compound 110, N^3-(3-Ethynyl-4-fluorophenyl)-7-phenylfuro[2,3-c]pyridine-2,3-diamine]
< 200 | < 200 | 500 to 2000 | C#Cc1cc(Nc2c(N)oc3c(-c4ccncc4)nccc23)ccc1F [Compound 111, N^3-(3-Ethynyl-4-fluorophenyl)-7-(pyridin-4-yl)furo[2,3-c]pyridine-2,3-diamine]
< 200 | < 200 | 500 to 2000 | N#Cc1ccc2c(Nc3cccc(C(F)(F)F)c3)c(N)oc2c1 [Compound 113, 2-Amino-3-((3-(trifluoromethyl)phenyl)amino)benzofuran-6-carbonitrile]
< 200 | < 200 | < 500 | N#Cc1ccc2c(Nc3cccc(Br)c3)c(N)oc2c1 [Compound 115, 2-Amino-3-((3-bromophenyl)amino)benzofuran-6-carbonitrile]
< 200 | < 200 | < 500 | Nc1sc2ccccc2c1Nc1ccc(F)c(Cl)c1 [Compound 117, N^3-(3-Chloro-4-fluorophenyl)benzo[b]thiophene-2,3-diamine]
< 200 | < 200 | > 2000 | Nc1sc2ccccc2c1Nc1cccc(C(F)(F)F)c1 [Compound 119, N^3-(3-(Trifluoromethyl)phenyl)benzo[b]thiophene-2,3-diamine]
< 200 | < 200 | < 500 | Nc1sc2ccccc2c1Nc1cccc(F)c1 [Compound 120, N^3-(3-Fluorophenyl)benzo[b]thiophene-2,3-diamine]
< 200 | 200 to 1000 | > 2000 | Nc1sc2ccc(Br)cc2c1Nc1ccc(F)c(Cl)c1 [Compound 123, 5-Bromo-N^3-(3-chloro-4-fluorophenyl)benzo[b]thiophene-2,3-diamine]
< 200 | < 200 | > 2000 | Nc1sc2ccccc2c1Nc1ccc(Cl)c(C(F)(F)F)c1 [Compound 124, N^3-(4-Chloro-3-(trifluoromethyl)phenyl)benzo[b]thiophene-2,3-diamine]

Structure (SMILES) | IC50 [1] [nM] | IC50 [2] [nM] | IC50 [3] [nM]
CCc1cc2c(Nc3ccc(F)c(Cl)c3)c(N)oc2c(-c2ccccc2)n1 [Compound 109, N^3-(3-chloro-4-fluorophenyl)-5-ethyl-7-phenylfuro[2,3-c]pyridine-2,3-diamine] | 200 to 1000 | 200 to 1000 | > 2000
Cc1cccc(Nc2c(N)oc3cc(C#N)ccc23)c1 [Compound 114, 2-Amino-3-(m-tolylamino)benzofuran-6-carbonitrile] | 200 to 1000 | < 200 | > 2000
N#Cc1ccc2c(Nc3ccccc3Cl)c(N)oc2c1 [Compound 116, 2-Amino-3-((2-chlorophenyl)amino)benzofuran-6-carbonitrile] | > 1000 | 200 to 1000 | > 2000
Nc1sc2ccccc2c1Nc1ccc(Br)c(C(F)(F)F)c1 [Compound 126, N^3-(4-Bromo-3-(trifluoromethyl)phenyl)benzo[b]thiophene-2,3-diamine] | 200 to 1000 | 200 to 1000 | > 2000
Nc1sc2ccc(Cl)cc2c1Nc1ccccc1 [Compound 130, 5-Chloro-N^3-phenylbenzo[b]thiophene-2,3-diamine] | 200 to 1000 | 200 to 1000 | > 2000
Nc1sc2ccc(Cl)cc2c1Nc1ccc(F)cc1 [Compound 131, 5-Chloro-N^3-(4-fluorophenyl)benzo[b]thiophene-2,3-diamine] | 200 to 1000 | 200 to 1000 | 500 to 2000
Nc1sc2ccc(Cl)cc2c1Nc1ccc(F)c(C(F)(F)F)c1 [Compound 132, 5-Chloro-N^3-(4-fluoro-3-(trifluoromethyl)phenyl)benzo[b]thiophene-2,3-diamine] | 200 to 1000 | 200 to 1000 | > 2000
